From patent EP0075895A2, “Pharmaceutical amides, and preparation, formulations and use thereof” (THE WELLCOME FOUNDATION LIMITED, priority 1981, dated 1983)
Where a name gives a salt, the structure may show the parent alone.

Target: T1, enkephalinase Al (Rattus norvegicus, UniProt P07861)
T1 construct: the solubilised enzymes contained in the supernatent separated by DEAE-cellulose column chromatograph; from tissue; host or cells: rat striatum (washed membrane pellet, solubilised with Triton X-100, then DEAE-cellulose and Sephacryl S.300 chromatography)
T1 sequence (P07861 1-750): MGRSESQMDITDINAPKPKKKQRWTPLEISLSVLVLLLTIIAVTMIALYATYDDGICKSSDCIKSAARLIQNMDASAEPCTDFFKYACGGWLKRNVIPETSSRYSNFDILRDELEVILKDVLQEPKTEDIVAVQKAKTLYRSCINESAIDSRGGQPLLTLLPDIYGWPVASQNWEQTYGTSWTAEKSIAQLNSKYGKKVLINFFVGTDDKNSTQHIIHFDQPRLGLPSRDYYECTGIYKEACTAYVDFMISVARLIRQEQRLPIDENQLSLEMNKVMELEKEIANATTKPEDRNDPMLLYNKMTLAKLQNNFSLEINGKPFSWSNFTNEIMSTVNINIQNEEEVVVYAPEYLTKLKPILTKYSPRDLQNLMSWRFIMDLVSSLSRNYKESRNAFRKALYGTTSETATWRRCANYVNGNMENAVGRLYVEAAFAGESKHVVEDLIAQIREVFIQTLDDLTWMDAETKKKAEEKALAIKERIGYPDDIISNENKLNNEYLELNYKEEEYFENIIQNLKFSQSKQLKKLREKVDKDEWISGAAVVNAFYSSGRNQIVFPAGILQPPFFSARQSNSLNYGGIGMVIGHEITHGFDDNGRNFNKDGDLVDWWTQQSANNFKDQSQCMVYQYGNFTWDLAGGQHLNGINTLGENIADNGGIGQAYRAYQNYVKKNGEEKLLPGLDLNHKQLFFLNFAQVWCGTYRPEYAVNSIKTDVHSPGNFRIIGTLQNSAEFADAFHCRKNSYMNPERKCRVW
Test: enkephalinase-inhibiting activity (3H-TGG generation from 3H-leucine enkephalin, TLC separation, scintillation counting)
Assay type: biochemical, Rats
Conditions: approximate IC50 determined graphically; concentration required for 50% inhibition of 3H-TGG generation; leucine enkephalin 5 x 10^-5M, 30°C
Source text: Rats were killed by decapitation and the striata dissected out on ice. […] The resulting supernatent was discarded and the remaining pellet washed three times.
Enkephalinase-inhibiting activity was estimated by the following procedure.

Compound	IC50
O=C(O)CNC(=O)[C@H](Cc1ccccc1)NP(=O)(O)O [compound 2, N-Phosphoryl-L-phenylalanyl-glycine trisodium salt]	15 nM
N-(Phosphoryl-phenylalanyl)leucine [compound 1]	7 nM
